Measured values as given in the supplement of paper PMC10307832.

Legend:
Test in all cases: relative viability (nuclei count vs DMSO), 5 days (fraction); higher = more cells survive
BMX-IN-1 + Navitoclax = compound: C=CC(=O)Nc1cc(-n2c(=O)ccc3cnc4ccc(-c5ccc(NS(C)(=O)=O)cc5)cc4c32)ccc1C [BMX-IN-1] + CC1(C)CCC(c2ccc(Cl)cc2)=C(CN2CCN(c3ccc(C(=O)NS(=O)(=O)c4ccc(N[C@H](CCN5CCOCC5)CSc5ccccc5)c(S(=O)(=O)C(F)(F)F)c4)cc3)CC2)C1 [Navitoclax] (partner 0.5 µM)
Summary of the method: (§1)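 Nuclei were stained with Hoechst during a one-step fixation (final 0.05% Triton X-100, 1% formaldehyde, 1 ug/ml Hoechst) carried out 5 days after dosing, then counted on 4× images. The cells, lung cancer lines in 1536-well plates, had been dosed by pin tool the day after seeding with one drug alone or a fixed anchor-drug dose plus five library-drug doses (not always all listed) in √10 steps. Relative viability is the nuclei count in treated wells divided by that in vehicle wells, and each value is the median of duplicate plates.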

Ibrutinib + Dasatinib = compound: C=CC(=O)N1CCC[C@@H](n2nc(-c3ccc(Oc4ccccc4)cc3)c3c(N)ncnc32)C1 [Ibrutinib] + Cc1nc(Nc2ncc(C(=O)Nc3c(C)cccc3Cl)s2)cc(N2CCN(CCO)CC2)n1 [Dasatinib] (partner 0.075 µM)
Summary of the method: as §1

BMX-IN-1 + Palbociclib = compound: C=CC(=O)Nc1cc(-n2c(=O)ccc3cnc4ccc(-c5ccc(NS(C)(=O)=O)cc5)cc4c32)ccc1C [BMX-IN-1] + CC(=O)c1c(C)c2cnc(Nc3ccc(N4CCNCC4)cn3)nc2n(C2CCCC2)c1=O [Palbociclib] (partner 0.5 µM)
Summary of the method: as §1

BMX-IN-1 + Pemetrexed = compound: C=CC(=O)Nc1cc(-n2c(=O)ccc3cnc4ccc(-c5ccc(NS(C)(=O)=O)cc5)cc4c32)ccc1C [BMX-IN-1] + Nc1nc2[nH]cc(CCc3ccc(C(=O)N[C@@H](CCC(=O)O)C(=O)O)cc3)c2c(=O)[nH]1 [Pemetrexed] (partner 0.2 µM)
Summary of the method: as §1

Cell Line	relative viability (BMX-IN-1 + Navitoclax; first compound 0.02 µM)	relative viability (BMX-IN-1 + Navitoclax; first compound 0.2 µM)	relative viability (BMX-IN-1 + Navitoclax; first compound 0.6325 µM)	relative viability (BMX-IN-1 + Navitoclax; first compound 2 µM)	relative viability (Ibrutinib + Dasatinib; first compound 0.005 µM)	relative viability (Ibrutinib + Dasatinib; first compound 0.01581 µM)	relative viability (Ibrutinib + Dasatinib; first compound 0.05 µM)	relative viability (Ibrutinib + Dasatinib; first compound 0.1581 µM)	relative viability (Ibrutinib + Dasatinib; first compound 0.5 µM)	relative viability (BMX-IN-1 + Palbociclib; first compound 0.02 µM)	relative viability (BMX-IN-1 + Palbociclib; first compound 0.2 µM)	relative viability (BMX-IN-1 + Palbociclib; first compound 0.6325 µM)	relative viability (BMX-IN-1 + Palbociclib; first compound 2 µM)	relative viability (BMX-IN-1 + Pemetrexed; first compound 0.02 µM)	relative viability (BMX-IN-1 + Pemetrexed; first compound 0.2 µM)	relative viability (BMX-IN-1 + Pemetrexed; first compound 0.6325 µM)	relative viability (BMX-IN-1 + Pemetrexed; first compound 2 µM)
LXF-289	0.954	1.06	1.03	1.01	0.26	0.14	0.275	0.325	0.176	0.65	0.615	0.639	0.588	0.896	0.947	1.01	0.985
LOU-NH91	–	0.695	0.773	0.683	0.473	0.474	0.485	0.522	0.38	–	0.541	0.488	0.546	–	0.406	0.392	0.366
NCI-H1944	0.992	1.11	1.02	1.08	0.21	0.18	0.206	0.178	0.193	0.35	0.357	0.327	0.288	0.632	0.746	0.603	0.592
NCI-H460	–	–	1.32	1.25	0.548	0.42	0.491	0.286	0.603	0.131	0.195	0.213	0.149	0.0558	0.0711	0.0676	0.071
NCI-H322M	0.848	1.18	1.24	1.16	0.218	0.236	0.242	0.241	0.238	0.531	0.484	0.478	0.445	0.596	0.689	0.65	0.586
H3255	0.51	0.595	0.544	0.633	0.35	0.346	0.276	0.292	0.242	0.311	0.318	0.349	0.299	0.52	0.583	0.686	0.563
COR-L23	1.52	1.46	1.14	1.02	0.614	0.396	0.497	0.513	0.544	0.306	0.293	0.384	0.311	0.188	0.204	0.206	0.165
NCI-H2126	0.836	0.945	0.876	0.907	0.506	0.57	0.546	0.574	0.623	0.379	0.345	0.363	0.322	0.777	0.7	0.705	0.721
NCI-H1993	1.07	0.875	–	0.958	0.504	0.658	0.532	0.53	0.56	0.706	0.683	0.646	0.55	0.65	0.669	0.645	0.622
NCI-H1915	0.808	0.793	0.764	0.777	0.287	0.292	0.288	0.319	0.369	0.54	0.543	0.555	0.538	0.585	0.522	0.484	0.396
NCI-H1734	1.01	0.907	0.953	0.949	0.36	0.473	0.506	0.521	0.454	0.37	0.375	0.386	0.329	0.451	0.409	0.407	0.377
A-427	1.04	0.987	0.971	1.01	0.625	0.677	0.769	0.666	0.655	0.488	0.573	0.571	0.504	1.01	1.05	1.11	0.992
NCI-H2170	0.742	0.634	0.689	0.623	0.464	0.413	0.209	0.447	0.211	0.426	0.421	0.447	0.373	0.273	0.285	0.319	0.243
NCI-H1437	1.3	1.33	1.07	1.18	0.313	0.39	0.375	0.217	0.362	0.326	0.294	0.354	0.328	0.351	0.285	0.34	0.292
PC-3 [JPC-3]	0.728	0.823	0.746	0.871	0.865	0.862	0.774	0.979	0.327	0.544	0.598	0.546	0.521	0.933	1.28	1.44	1.04
201T	1.14	1.21	1.18	1.2	0.58	0.517	0.6	0.58	0.608	0.392	0.391	0.42	0.348	0.326	0.342	0.339	0.351
PC-14	1.02	1.29	1.01	1.06	–	0.228	0.209	0.312	0.0569	0.583	0.478	0.58	0.47	0.121	0.134	0.145	0.134
